Laboratory results reported in patent US6737383B1, “Herbicidal oxadiazolidines” (priority 1999, dated 2004).

What was measured:
bamyardgrass = experiment: Test B flood test barnyardgrass; assay type: in vivo, Echinochloa crus-galli; conditions: for Plant response rating, Barnyardgrass (0 to 10 scale, 0 is no effect, 10 is complete control) / Barnyardgrass plant response rating (0 to 10 scale, 0 is no effect, 10 is complete control): visual evaluation after twelve to sixteen days; for Barnyardgrass plant response rating (0 to 10 scale, 0 is no effect, 10 is complete control): under heading Pre-emergence
How it was run: (§1)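 Flood test on plants grown to the 2-leaf stage; treated plants kept in greenhouse twelve to sixteen days, then visually rated against controls on a 0 (no effect) to 10 (complete control) scale.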

bedstraw = experiment: Test B pre/postemergence bedstraw; assay type: in vivo, Galium aparine
How it was run: (§2)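 Test chemicals in a non-phytotoxic solvent mixture with surfactant were sprayed preemergence onto planted seeds and postemergence onto plants 2 to 18 cm tall (1- to 4-leaf stage). After twelve to sixteen days in a greenhouse, injury was visually rated against untreated controls from 0 (no effect) to 10 (complete control).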

rice = experiment: Test B flood test rice; assay type: in vivo, Oryza sativa; conditions: for Plant response rating, Rice (0 to 10 scale, 0 is no effect, 10 is complete control) / Rice plant response rating (0 to 10 scale, 0 is no effect, 10 is complete control): visual evaluation after twelve to sixteen days; for Rice plant response rating (0 to 10 scale, 0 is no effect, 10 is complete control): under heading Pre-emergence
How it was run: as §1

pigweed = experiment: Test B pre/postemergence pigweed; assay type: in vivo, Amaranthus retroflexus
How it was run: as §2

[1] = Rate 62 g/ha, headed Pre-emergence (flood test species), scale 0 to 10 (0 no effect, 10 complete control)
[2] = Rate 125 g/ha, Pre-emergence, flood test species, scale 0 to 10 where 0 is no effect and 10 is complete control
[3] = Rate 250 g/ha, Pre-emergence, flood-test species, scale 0 to 10, 0 is no effect, 10 is complete control
[4] = Rate 500 g/ha, headed Pre-emergence (flood test species), scale 0 to 10 (0 no effect, 10 complete control)
[5] = Preemergence, Rate 62 g/ha, scale of 0 to 10 where 0 is no effect and 10 is complete control
[6] = Preemergence, Rate 125 g/ha, 0 is no effect, 10 is complete control
[7] = Preemergence, Rate 250 g/ha, scale 0 to 10, 0 is no effect, 10 is complete control
[8] = Preemergence, Rate 500 g/ha, scale 0 to 10 (0 no effect, 10 complete control)
[9] = Rate 62 g/ha, Postemergence, scale of 0 to 10 where 0 is no effect and 10 is complete control
[10] = Rate 125 g/ha, Postemergence, scale 0 to 10
[11] = Rate 500 g/ha, Postemergence, scale 0 to 10
[12] = Rate 62 g/ha, flood test species, Pre-emergence
[13] = Rate 125 g/ha, flood test species
[14] = Rate 250 g/ha, Pre-emergence (flood test species), scale 0 to 10, 0 is no effect, 10 is complete control
[15] = Rate 500 g/ha, Pre-emergence section of Table B, 0 to 10 scale (0 no effect, 10 complete control)
[16] = Postemergence, Rate 62 g/ha, scale 0 to 10, 0 is no effect, 10 is complete control
[17] = Postemergence, Rate 125 g/ha, scale of 0 to 10 where 0 is no effect and 10 is complete control
[18] = Postemergence, Rate 250 g/ha, scale of 0 to 10, 0 is no effect, 10 is complete control
[19] = Preemergence, Rate 62 g/ha, scale 0 to 10 (0 no effect, 10 complete control)
[20] = Preemergence, Rate 125 g/ha, scale of 0 to 10 where 0 is no effect and 10 is complete control
[21] = Preemergence, Rate 250 g/ha, scale 0 to 10 (0 no effect, 10 complete control)
[22] = Preemergence, Rate 500 g/ha, scale of 0 to 10 where 0 is no effect and 10 is complete control
[23] = Pre-emergence, Rate 1000 g/ha, scale 0 to 10 (0 no effect, 10 complete control)
[24] = Rate 500 g/ha, Pre-emergence, flood test species, scale 0 to 10 (0 no effect, 10 complete control)
[25] = Postemergence, Rate 1000 g/ha, scale 0 to 10 (0 no effect, 10 complete control)
[26] = Preemergence, Rate 250 g/ha, scale of 0 to 10 where 0 is no effect and 10 is complete control
[27] = Rate 125 g/ha, Postemergence, scale of 0 to 10 where 0 is no effect and 10 is complete control
[28] = Rate 250 g/ha, Postemergence, scale of 0 to 10 where 0 is no effect and 10 is complete control
[29] = Rate 1000 g/ha, Preemergence, scale 0 to 10 (0 no effect, 10 complete control)
[30] = Rate 31 g/ha, Pre-emergence section (flood test species), scale 0 to 10
[31] = Postemergence, Rate 31 g/ha, visual rating, scale 0 to 10 (0 no effect, 10 complete control)
[32] = Rate 62 g/ha, Postemergence, scale 0 to 10, 0 no effect, 10 complete control

| Compound | Barnyardgrass plant response rating (bamyardgrass; [2]) | Barnyardgrass plant response rating (bamyardgrass; [3]) | Bedstraw plant response rating (bedstraw; [5]) | Rice plant response rating (rice; [2]) | Rice plant response rating (rice; [3]) | Redroot pigweed plant response rating (pigweed; [5]) | Plant response rating, Barnyardgrass (0 to 10 scale, 0 is no effect, 10 is complete control) (bamyardgrass; [12]) | Barnyardgrass plant response rating (0 to 10 scale, 0 is no effect, 10 is complete control) (bamyardgrass; [13]) | Barnyardgrass plant response rating (bamyardgrass; [14]) | Barnyardgrass plant response rating (bamyardgrass; [15]) | Plant response rating, Bedstraw (bedstraw; [16]) | Bedstraw plant response rating (bedstraw; [18]) | Plant response rating, Rice (0 to 10 scale, 0 is no effect, 10 is complete control) (rice; [12]) | Rice plant response rating (0 to 10 scale, 0 is no effect, 10 is complete control) (rice; [13]) | Rice plant response rating (rice; [14]) | Rice plant response rating (rice; [15]) | Plant response rating, Redroot pigweed (pigweed; [16]) | Redroot pigweed plant response rating (pigweed; [20]) | Plant response rating, Redroot pigweed (pigweed; [21]) | Plant response rating, Redroot pigweed (pigweed; [22]) | other results |
| --- | --- | --- | --- | --- | --- | --- | --- | --- | --- | --- | --- | --- | --- | --- | --- | --- | --- | --- | --- | --- | --- |
| CCN(Cc1ccncc1)C(=O)n1oc(=O)n(C(C)C)c1=O [Compound 189] | 0 | 0 | 0 | 0 | 0 | 0 | – | – | – | – | – | – | – | – | – | – | – | – | – | – | Barnyardgrass plant response rating (bamyardgrass; [1]): 0; Plant response rating, Barnyardgrass (bamyardgrass; [4]): 0; Bedstraw plant response rating (0 to 10 scale) (bedstraw; [6]): 0; Bedstraw plant response rating (bedstraw; [7]): 0; Bedstraw plant response rating (bedstraw; [8]): 0; Bedstraw plant response rating (bedstraw; [9]): 0; Bedstraw plant response rating (bedstraw; [10]): 0; Plant response rating (0 to 10; 0 is no effect, 10 is complete control), Bedstraw (bedstraw; Rate 250 g/ha, Postemergence): 0; Bedstraw plant response rating (bedstraw; [11]): 0; Rice plant response rating (rice; [1]): 0; Plant response rating, Rice (rice; [4]): 0; Redroot pigweed plant response rating (0 to 10 scale) (pigweed; [6]): 0; Redroot pigweed plant response rating (pigweed; [7]): 0; Redroot pigweed plant response rating (pigweed; [8]): 0; Redroot pigweed plant response rating (pigweed; [9]): 0; Redroot pigweed plant response rating (pigweed; [10]): 0; Plant response rating (0 to 10; 0 is no effect, 10 is complete control), Redroot pigweed (pigweed; Rate 250 g/ha, Postemergence): 0; Redroot pigweed plant response rating (pigweed; [11]): 0 |
| CCOC(Cn1c(=O)on(C(=O)N(c2ccc(F)cc2)C(C)C)c1=O)OCC [Compound 629] | – | – | – | – | – | – | 0 | 0 | 0 | 0 | 3 | 8 | 0 | 0 | 0 | 0 | 0 | 10 | 10 | 10 | Plant response rating, Bedstraw (bedstraw; [17]): 5; Bedstraw plant response rating (bedstraw; [19]): 0; Bedstraw plant response rating (bedstraw; [20]): 0; Plant response rating, Bedstraw (bedstraw; [21]): 3; Plant response rating, Bedstraw (bedstraw; [22]): 8; Redroot pigweed plant response rating (pigweed; [18]): 2; Redroot pigweed plant response rating (pigweed; [19]): 2 |
| CCOC(=O)C(C)N(C(=O)n1oc(=O)n(C(C)C)c1=O)c1ccc(F)cc1 (stereo not shown) [Compound 302] | 0 | 0 | – | 0 | 0 | – | – | – | – | – | – | – | – | – | – | – | – | – | – | – | Barnyardgrass plant response rating (bamyardgrass; [23]): 0; Barnyardgrass plant response rating (bamyardgrass; [24]): 0; Bedstraw plant response rating (bedstraw; [25]): 0; Bedstraw plant response rating (0 to 10 scale) (bedstraw; Preemergence, Rate 125 g/ha): 0; Bedstraw plant response rating (bedstraw; [26]): 0; Bedstraw plant response rating (bedstraw; [22]): 0; Bedstraw plant response rating (bedstraw; [27]): 0; Plant response rating, Bedstraw (bedstraw; [28]): 0; Bedstraw plant response rating (bedstraw; Rate 500 g/ha, Postemergence, scale 0 to 10, 0 no effect, 10 complete control): 0; Plant response rating, Bedstraw (bedstraw; [29]): 0; Rice plant response rating (rice; [23]): 0; Rice plant response rating (rice; [24]): 0; Redroot pigweed plant response rating (pigweed; [25]): 3; Redroot pigweed plant response rating (0 to 10 scale) (pigweed; Preemergence, Rate 125 g/ha): 0; Redroot pigweed plant response rating (pigweed; [26]): 0; Redroot pigweed plant response rating (pigweed; [22]): 0; Redroot pigweed plant response rating (pigweed; [27]): 1; Plant response rating, Redroot pigweed (pigweed; [28]): 2; Plant response rating, Redroot pigweed (pigweed; [29]): 3 |
| CC(C)N(C(=O)n1oc(=O)n(CCCC#N)c1=O)c1ccc(F)cc1F [Compound 675] | – | – | 0 | – | – | 5 | 0 | 0 | 0 | 0 | 0 | 6 | 0 | 0 | 0 | 0 | 2 | – | – | 10 | Bedstraw plant response rating (bedstraw; [17]): 1; Plant response rating, Bedstraw (bedstraw; [20]): 2; Plant response rating, Bedstraw (bedstraw; [21]): 10; Plant response rating, Bedstraw (bedstraw; [22]): 10; Redroot pigweed plant response rating (pigweed; [17]): 2; Plant response rating, Redroot pigweed (pigweed; [20]): 9; Redroot pigweed plant response rating (pigweed; Rate 500 g/ha, Postemergence, scale 0 to 10, 0 is no effect, 10 is complete control): 8 |
| CC(C)N(C(=O)n1oc(=O)n(Cc2nnc(Cl)s2)c1=O)c1ccc(F)cc1 [Compound 646] | – | – | 0 | – | – | 0 | 0 | 0 | 0 | 0 | 0 | 0 | 0 | 0 | 0 | 0 | 0 | 0 | 0 | 0 | Redroot pigweed plant response rating (pigweed; [17]): 0 |
| COCC(C)N(C(=O)n1oc(=O)n(-c2ccccc2C)c1=O)c1ccc(F)cc1 (stereo not shown) [Compound 324] | 0 | 0 | 0 | 0 | 0 | 0 | – | – | – | – | – | – | – | – | – | – | – | – | – | – | Barnyardgrass plant response rating (bamyardgrass; [30]): 0; Barnyardgrass plant response rating (bamyardgrass; [1]): 0; Bedstraw plant response rating (bedstraw; [31]): 0; Bedstraw plant response rating (bedstraw; Preemergence, Rate 31 g/ha, visual rating, scale 0 to 10 (0 no effect, 10 complete control)): 0; Bedstraw plant response rating (0 to 10 scale) (bedstraw; Preemergence, Rate 125 g/ha): 0; Bedstraw plant response rating (bedstraw; [26]): 0; Bedstraw plant response rating (bedstraw; [32]): 0; Bedstraw plant response rating (bedstraw; [27]): 0; Plant response rating, Bedstraw (bedstraw; [28]): 0; Rice plant response rating (rice; [30]): 0; Rice plant response rating (rice; [1]): 0; Redroot pigweed plant response rating (pigweed; [31]): 0; Redroot pigweed plant response rating (0 to 10 scale) (pigweed; Preemergence, Rate 125 g/ha): 0; Redroot pigweed plant response rating (pigweed; [26]): 0; Redroot pigweed plant response rating (pigweed; [32]): 0; Redroot pigweed plant response rating (pigweed; [27]): 0; Plant response rating, Redroot pigweed (pigweed; [28]): 0 |
| CC(C)N(C(=O)n1oc(=O)n(Cc2nnc(Cl)s2)c1=O)c1ccc(F)cc1F [Compound 645] | – | – | – | – | – | 0 | 0 | 0 | 0 | 0 | 0 | 0 | 0 | 0 | 0 | 0 | 0 | 0 | 0 | 4 | Redroot pigweed plant response rating (pigweed; [17]): 2 |
